Experiment [1] has as its target Cruzipain (Trypanosoma cruzi) (UniProt P25779). The experiment in a line: Inhibition of Trypanosoma cruzi C-terminal truncated cruzain expressed in DH5alpha Escherichia coli at 100 uM by well-microplate spectrophotometry.
In another experiment the target is Cruzipain (Trypanosoma cruzi, UniProt P25779). In words: Inhibition of Trypanosoma cruzi C-terminal truncated cruzain expressed in DH5alpha Escherichia coli by well-microplate spectrophotometry.

The term inhibition denotes the relative decrease from the control value, in per cent. A low value points to little suppression. Usually IC50 stands for the concentration that gives 50% inhibition. A lower IC50 goes with inhibition by little substance.

A value given as a limit tells only on which side of the number the result lay.

Cruzipain, sequence (P25779 whole entry, the tested form may be a part): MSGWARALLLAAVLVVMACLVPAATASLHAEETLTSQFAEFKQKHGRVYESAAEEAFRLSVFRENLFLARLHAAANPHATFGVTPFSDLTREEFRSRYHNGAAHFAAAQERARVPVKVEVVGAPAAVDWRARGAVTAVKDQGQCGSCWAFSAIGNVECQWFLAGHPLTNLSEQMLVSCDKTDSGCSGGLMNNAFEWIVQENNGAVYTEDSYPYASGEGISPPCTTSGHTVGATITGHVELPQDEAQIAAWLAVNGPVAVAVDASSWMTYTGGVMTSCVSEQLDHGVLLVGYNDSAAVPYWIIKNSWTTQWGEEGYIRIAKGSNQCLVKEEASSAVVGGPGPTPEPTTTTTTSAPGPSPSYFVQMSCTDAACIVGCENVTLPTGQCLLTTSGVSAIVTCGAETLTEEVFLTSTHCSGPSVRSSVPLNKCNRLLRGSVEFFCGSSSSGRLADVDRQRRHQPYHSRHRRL
Cruzipain (Trypanosoma cruzi), sequence (P25779 123-467 limits assumed): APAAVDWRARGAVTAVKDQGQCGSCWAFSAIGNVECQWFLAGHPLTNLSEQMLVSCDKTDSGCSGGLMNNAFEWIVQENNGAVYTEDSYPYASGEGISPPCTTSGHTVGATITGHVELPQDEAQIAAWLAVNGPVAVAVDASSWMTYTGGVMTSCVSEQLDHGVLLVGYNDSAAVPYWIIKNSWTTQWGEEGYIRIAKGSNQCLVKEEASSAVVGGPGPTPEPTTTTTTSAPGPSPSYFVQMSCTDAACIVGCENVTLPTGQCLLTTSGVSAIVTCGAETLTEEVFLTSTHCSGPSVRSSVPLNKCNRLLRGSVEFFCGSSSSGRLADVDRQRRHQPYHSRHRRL

In experiment [1], `Cc1cc(C(F)(F)F)nc(N/N=C/c2ccccc2C)n1` had an inhibition of 45%. In addition, the IC50 at Cruzipain is above 100 µM.

`COc1ccc(/C=N/Nc2nccc(C(F)(F)F)n2)cc1`: the inhibition in experiment [1] worked out at 40%. On Cruzipain, the IC50 was above 100 µM.

`Cc1ccc(/C=N/Nc2nccc(C(F)(F)F)n2)cc1` displayed an inhibition in experiment [1] of 40%. Moreover, the IC50 against Cruzipain is above 100 µM.

`FC(F)(F)c1ccnc(N/N=C/c2ccccc2)n1` yielded an inhibition in experiment [1] of 30%. This compound also yielded a half-maximal inhibitory concentration (IC50) at Cruzipain above 150 µM.

Take `FC(F)(F)c1ccnc(N/N=C/c2ccc(Cl)cc2)n1`: the inhibition in experiment [1] stood at 80%. This compound also had an IC50 on Cruzipain of 85 µM.

`O=[N+]([O-])c1ccc(/C=N/Nc2nccc(C(F)(F)F)n2)cc1` had an inhibition in experiment [1] of 50%. The midpoint of inhibition at Cruzipain, the IC50, lay at 100 µM.

`Cc1ccccc1/C=N/Nc1nccc(C(F)(F)F)n1` yielded an inhibition in experiment [1] of 45%. On Cruzipain, the IC50 is above 100 µM.

In turn, `COc1ccccc1/C=N/Nc1nc(C)cc(C(F)(F)F)n1` showed an inhibition in experiment [1] of 20%. For the same compound, the 50% inhibitory concentration (IC50) against Cruzipain was above 150 µM.

As for `Cc1cc(C(F)(F)F)nc(N/N=C/c2ccc(Cl)cc2)n1`, the inhibition in experiment [1] was 60%. In addition, at Cruzipain, 100 µM corresponded to half-maximal inhibition (IC50).

The values above are taken from ChEMBL document CHEMBL1152197, “Convergent synthesis and cruzain inhibitory activity of novel 2-(N'-benzylidenehydrazino)-4-trifluoromethyl-pyrimidines” (Bioorg Med Chem, 2008).
